Assay results: patent US6825236B2, “Colchicine derivatives” (California Pacific Medical Center, priority 2003, dated 2004)

What was measured:
C3H/HeJ mice = assay: In vivo toxicity (MTD / nontoxicity dose), intraperitoneal injection; conditions: highest dose causing no severe irreversible toxicity
Method: This example provides directions for performing in vivo toxicity tests of the compounds of the invention on C3H/HeJ mice.
Acute toxicities of the compounds of this invention are evaluated on C3H/HeJ mice (body weight 18-22 g). The MTD40 (maximum tolerated dose at day 40) values are determined by the standard procedure described by Gad and Chengelis (see, for example, “Acute Toxicology Testing,” 2nd Ed., Shayne O. Gad and Christopher P. Chengelis, pp. 186-195 (Academic Press).) In the consecutive type studies, 2 mice are dosed at low and moderate doses of 40 and 100 mg/kg. If no severe and irreversible toxicity (euthanasia is required) occurs at these doses, a new pair of animals is initiated at 180 mg/kg, which is 1.8 times higher than 100 mg/kg. Sequential dosages (about 3 doses on 3 pairs of animals, i.e. 2 mice for each drug dose) are increased by a factor of 1.8 until severe and irreversible toxicity (euthanasia is required) occurred. Then another pair of animals is initiated at the highest nonlethal dosage, and successive dosages were increased by a factor of 1.15. The result of this exercise is two dosages, one apparently nonlethal and the other lethal if severe and irreversible toxicity occurs and euthanasia is required, separated by a factor of 1.15. Six mice are dosed at each dosage. If no severe and irreversible toxicity occurs at the lower dosage and at least one with severe and irreversible toxicity occurs at the higher dose, then the lower dose is considered to be the MTD. The compounds of this invention are administered to C3H/HeJ mice by intraperitoneal injection (IP). Drug toxicity is evaluated on mice checked daily for 45 days. The toxicity parameters reported will be the MTD40.

HCT116 = assay: Cell colony formation assay; type: cell-based; conditions: 72 hours with drug, colonies counted after 7 days
Method: This example provides directions for growing cells and testing compounds of the invention for their effect on the growth of the cells. All cells were purchased from DCTDC Tumor Repository, NCI, NIH.
Cell Colony Formation Assay
Four hundred cells (HCT 116, PC-3) or five hundred cells (VM46) were plated in 60 mm Petri dishes containing 2.7 ml of medium (modified McCoy's 5a medium) containing 10% fetal bovine serum and 100 units/ml penicillin and […] streptomycin. The cells were incubated in a CO2 incubator at 37° C. for 5 hours for attachment to the bottom of Petri dishes. Drugs were made fresh in medium at ten times the final concentration, and then 0.3 ml of this stock solution was added to the 2.7 ml of medium in the dish. The cells were then incubated with drugs for 72 hours at 37° C. At the end of the incubation the drug-containing media were decanted, the dishes were rinsed with 4 ml of Hank's Balance Salt Solution (HBSS), 5 ml of fresh medium was added, and the dishes were returned to the incubator for colony formation. The cell colonies were counted using colony counter after incubation for 7 days for HCT116 cells and PC-3 cells and 8 days for VM46 cells, respectively.
Values of ID50 (the drug concentration producing 50% inhibition of colony formation) may be determined for each tested compound. The directions described in this example may be used in other cells, such as DU-145.

[1] = test system: MTG-B mouse mammary adenocarcinoma; assay: In vivo efficacy in mice bearing MTG-B tumors; parameters: species or system C3H/HeJ mice; conditions: for Surviving days after treatment of MTG-B mouse mammary adenocarcinoma in C3H/Hcj mice: i.p., days from day 0, survival time of control mice generally 6 days; for T/C %: surviving days of treated mice / surviving days of control mice x 100%
Method: This example provides directions for performing in vivo efficacy tests of the compounds of the invention on C3H/HeJ mice bearing MTG-B tumors.
Studies on the compounds of this invention are performed on C3H/HeJ mice bearing MTG-B tumors. The tumors grow exponentially following implantation into the flanks of the mice and reached a diameter of 8 mm (268.08 mm^3) by day 7 to 10. Treatment is initiated at that time, with the first day of treatment designated as day 0 for calculation and plots. The mice are injected i.p. with three drug dose levels (⅓, ½, 1 5 MTD) using both a single injection and the schedule of Q2D 5 3 (every 2 days for a total of 3 treatments at ⅓ MTD). Control groups of mice bearing 8 mm diameter tumors are treated with vehicle alone. After drug treatment, the mice are observed twice a day. When a tumor reaches 1.5 g, the mouse bearing the tumor wis euthanized. Surviving days measured from day 0 for mice treated with anticancer drugs (T) and surviving days measured from day 0 for control mice (C) are recorded. Tumor growth inhibition values (T/C %) are calculated using the formula T/C %=(surviving days of mice treated with an anticancer drug T/surviving days of control mice C) 5 100%.
Tumor sizes may be measured by caliper every day. Daily measurement (mm) of solid tumor (length L and width W) in two dimensions is used to calculate the tumor weight [tumor weight=(length 5 width^2)/2] based on the interchangeable value of 1 mm^3=1 mg. Tumor growth delay (T−C value) is determined by calculation of the median time (in days) required for the treatment group and control group tumors to reach 1,000 mg. Tumor doubling time (Td) is measured, and tumor cell kill is calculated by the formula of log cell kill=(T−C value)/(3.32 5 Td). Regression effects after treatment may be observed and recorded (a complete regression: a regression below limit of palpation; a partial regression: a regression of more than 50% reduction in tumor mass).
Generally, the survival time of the control mice is six (6) days. A ratio of the extra days of survival of mice treated with the compounds of the invention (compared to control) to the extra days of survival of mice treated with taxol (compared to control), can be calculated. For example, if the mice survived 18 days as compared to 9 days for taxol-treated mice, the CD/Taxol ratio would be 18−6/9−6=12/3=4 or 400%.
The following Table II provides a summary of the in vivo toxicity and iv vivo efficacy tests described in Examples 41 and 42 for the compounds tested.

Molecule	In Vivo Toxicity Nontoxicity Dose (ip. mg/kg) in C3H/Hej mice (C3H/HeJ mice)	Survival (%) of HCT116 (HCT116; 10 nM) [%]	Survival (%) of HCT116 (HCT116; 100 nM) [%]	Survival (%) of HCT116 (HCT116; 1 nM) [%]	Surviving days after treatment of MTG-B mouse mammary adenocarcinoma in C3H/Hcj mice [1] [days]	T/C % [1] [%]
COc1cc2c(c(OC)c1OC)-c1ccc(SC)c(=O)cc1C(NC(=O)COc1ccc(F)cc1)CC2 (centres unmarked) [Compound 000811, N-Deacetyl-N-(4-fluorophenoxyacetyl)thiocolchicine]	150 mg/kg	50.4	0	–	–	–
COc1cc2c(c(OC)c1OC)-c1ccc(SC)c(=O)cc1C(NC(=O)COc1ccc(C=O)cc1)CC2 (centres unmarked) [Compound 000829, N-Deacetyl-N-(4-formylphenoxyacetyl)thiocolchicine]	150 (120) mg/kg	0	0	100	13	217
COc1cc2c(c(OC)c1OC)-c1ccc(SC)c(=O)cc1C(NC(=O)c1cc(=O)c3ccccc3o1)CC2 (centres unmarked) [Compound 000914, N-Deacetyl-N-(chromone-2-carbonyl)thiocolchicine]	150 (120) mg/kg	3.54	0	–	–	–
COc1cc2c(c(OC)c1OC)-c1ccc(SC)c(=O)cc1C(NC(=O)COc1cc(C)ccc1C)CC2 (centres unmarked) [Compound 000817, N-Deacetyl-N-(2,5-dimethylphenoxyacetyl)thiocolchicine]	100 mg/kg	99.8	0	–	–	–
COc1ccc(OCC(=O)N[C@H]2CCc3cc(OC)c(OC)c(OC)c3-c3ccc(SC)c(=O)cc32)cc1 [Compound 000825, N-Deacetyl-N-(4-methoxyphenoxyacetyl)thiocolchicine]	50 (30) mg/kg	0	0	90.25	18	–
N-Deacetyl-N-(4-methoxyphenoxyacetyl)thiocolchicine [Compound 000818]	–	98.8	0	–	8	–
COc1cc2c(c(OC)c1OC)-c1ccc(SC)c(=O)cc1C(NC(=O)c1ccc([N+](=O)[O-])o1)CC2 (centres unmarked) [Compound 000906, N-Deacetyl-N-(5-nitro-2-furnancarbonyl)thiocolchicine]	50 mg/kg	0	0	98.67	–	–
COc1cc2c(c(OC)c1OC)-c1ccc(SC)c(=O)cc1C(NC(=O)COc1ccc(Cl)cc1)CC2 (centres unmarked) [Compound 000814, N-Deacetyl-N-(4-chlorophenoxyacetyl)thiocolchicine]	100 mg/kg	87.7	0	–	–	–
COc1cc2c(c(OC)c1OC)-c1ccc(OC)c(=O)cc1C(NC(C)=O)CC2 (centres unmarked) [Colchicine]	1.6 (0.5) mg/kg	76.1	0	100	9	150
COc1cc2c(c(OC)c1OC)-c1ccc(SC)c(=O)cc1C(NC(=O)COc1ccc(Br)cc1)CC2 (centres unmarked) [Compound 000815, N-Deacetyl-N-(4-bromophenoxyacetyl)thiocoichicine]	100 (100) mg/kg	93.8	0	–	9	150
COc1cc2c(c(OC)c1OC)-c1ccc(SC)c(=O)cc1C(NC(=O)c1cccc(NC(=O)CCl)c1)CC2 (centres unmarked) [Compound 000911, N-Deacetyl-N-(3-chloroacetaminobenzoyl)thiocolchicine]	30 (30) mg/kg	0	0	100	11	183
COc1cc2c(c(OC)c1OC)-c1ccc(SC)c(=O)cc1C(NC(=O)COc1ccccc1[N+](=O)[O-])CC2 (centres unmarked) [Compound 000830, N-Deacetyl-N-(2-nitrophenoxyacetyl)thiocolchicine]	150 (120) mg/kg	9.01	0	–	8	133
COc1cc2c(c(OC)c1OC)-c1ccc(SC)c(=O)cc1C(NC(=O)COc1ccc(I)cc1)CC2 (centres unmarked) [Compound 000816, N-Deacetyl-N-(4-iodophenoxyacetyl)thiocolchicine]	100 mg/kg	100	0	–	–	–
COc1cc2c(c(OC)c1OC)-c1ccc(SC)c(=O)cc1C(NC(=O)CCC(=O)c1ccc(Br)cc1)CC2 (centres unmarked) [Compound 000926, N-Deacetyl-N-(3-[4-bromobenzoyl]propionyl)thiocolchicine]	–	100	0	–	–	–
COc1cc2c(c(OC)c1OC)-c1ccc(SC)c(=O)cc1[C@@H](NC(=O)COc1ccc([N+](=O)[O-])cc1)CC2 [Compound 001127, N-Deacetyl-N-(4-nitrophenoxyacetyl)thiocolchicine]	–	75.37	0	–	–	–
